Test results taken from BindingDB's records for PubMed 38457911 (China Pharmaceutical University).

What was measured:
[1] = target: E3 ubiquitin-protein ligase CBL; assay: Inhibition of c-Cbl (unknown origin) by HTRF method
[2] = target: E3 ubiquitin-protein ligase CBL; assay: Inhibition of c-Cbl (unknown origin) by TR-FRET assay
[3] = target: E3 ubiquitin-protein ligase CBL; assay: Inhibition of c-Cbl (unknown origin) expressed in Escherichia coli measured for 90 mins by HTRF method
[4] = target: E3 ubiquitin-protein ligase CBL (Homo sapiens) (UniProt P22681); assay: Binding affinity to c-Cbl (unknown origin) assessed as dissociation constant by SPR assay

IC50 [1] | IC50 [3] | SMILES | other results
0.008 µM |  | CC(C)[C@H]1CN(C)CCN1Cc1cc(C(=O)Nc2cccc(C3([C@@H](F)c4nncn4C)CC(F)(F)C3)c2)nc(C2CC2)c1 | 
< 0.2 µM |  | Cn1cnnc1-c1cc(C#N)ccc1-c1cc(C2CC2)nc(N2Cc3c(cc(CNCC4(F)CCC4)cc3C(F)(F)F)C2=O)c1 | 
 |  | C[C@H]1CCCN(Cc2cc(C(F)(F)F)c3[nH]c(-c4cccc([C@]5(c6nncn6C)C[C@@H](C)C5)c4)nc3c2)C1 | IC50 [2]: > 10 µM
 | 0.01 µM | Cn1cnnc1[C@]1(c2cccc(NC(=O)c3cc(CN4CCC[C@H](C(F)F)C4)cn4ccnc34)c2)C[C@H](CC#N)C1 | 
 | 0.04 µM | CC(c1cc(C(=O)Nc2cccc([C@]3(c4nncn4C)C[C@@H](CC#N)C3)c2)nc2cc[nH]c12)N1CCC[C@H](C)C1 (stereo partly specified) | 
 |  | COCC1(NCc2cc3c(c(C(F)(F)F)c2)CN(c2cccc([C@]4(c5nncn5C)C[C@H](OC)C4)c2)C3=O)CC1 [2-(3-((1r,3r)-3-methoxy-1-(4-methyl-4H-1,2,4-triazol-3-yl)cyclobutyl)phenyl)-6-(((1-(methoxymethyl)cyclopropyl)amino)methyl)-4-(trifluoromethyl)isoindolin-1-one] | Kd [4]: 0.21 µM
